The data set concerns mouse. The data set is described as follows: Behavioral despair test in mouse (forced swim test), IP administration.
The mark [1] stands for this setting: STUDY A, 150 mg/kg i.p. 30 min prior to testing, hemisulfate monohydrate, 150 mg/kg.
Setting [2] is: STUDY A, 150 mg/kg i.p. 30 min prior to testing, 150 mg/kg.

As for `CN1c2ccccc2C(NCCCCCCC(=O)O)c2ccc(Cl)cc2S1(=O)=O` (stereo not shown) [tianeptine hemisulfate monohydrate, 7-[(3-chloro-6,11-dihydro-6-methyldibenzo[c,f][1,2]thiazepin-11-yl)amino]heptanoic acid S,S-dioxide hemisulfate monohydrate], the “Duration of Immobility mean ± s.e.m.” value (STUDY A, 100 mg/kg i.p. 30 min prior to testing) was determined as 83.1 ± 21.2 s; the “Duration of Immobility mean ± s.e.m.” value under setting [1] came out at 115.5 ± 13.6 s; the “Duration of Immobility mean ± s.e.m.” value (STUDY A, 200 mg/kg i.p. 30 min prior to testing) stood at 108.8 ± 19.8 s; the “Duration of Immobility mean ± s.e.m.” value (STUDY B, 30 mg/kg i.p. 30 min prior to testing) is 25.8 ± 8.7 s; the “Duration of Immobility mean ± s.e.m.” value (STUDY B, 60 mg/kg i.p. 30 min prior to testing) was 29.7 ± 9.7 s. In addition, the “Duration of Immobility % change from control” value is, setting by setting: (STUDY A, 100 mg/kg i.p. 30 min prior to testing, hemisulfate monohydrate, 100 mg/kg) −59%; under setting [1], −43%; (STUDY A, 200 mg/kg i.p. 30 min prior to testing, hemisulfate monohydrate, 200 mg/kg) −46%; (STUDY B, 30 mg/kg i.p. 30 min prior to testing, hemisulfate monohydrate, 30 mg/kg) −86%; (STUDY B, 60 mg/kg i.p. 30 min prior to testing, hemisulfate monohydrate, 60 mg/kg) −83%. Moreover, the “abnormal behavior prior to the test” value (STUDY B, 30 mg/kg and 60 mg/kg i.p.) was “abnormal behavior (including Straub tail and circling) was observed in all ten mice”. The “conclusion of STUDIES A and B” value (dose-range 30 mg/kg-200 mg/kg i.p.) is listed as “antidepressant-like activity”.

With `CN1c2ccccc2C(NCCCCCCC(=O)O)c2ccc(Cl)cc2S1(=O)=O` (stereo not shown) [tianeptine sodium, reference compound], under setting [2], the “Duration of Immobility % change from control” value was −50% and the “Duration of Immobility mean ± s.e.m.” value amounted to 102.0 ± 13.0 s.

With `CN(C)CCCN1c2ccccc2CCc2ccccc21` [Imipramine, reference compound], for the setting “STUDY A, 32 mg/kg i.p. 30 min prior to testing”, the “Duration of Immobility mean ± s.e.m.” value was 64.1 ± 16.1 s. Also, the “Duration of Immobility % change from control” value (STUDY A, 32 mg/kg i.p. 30 min prior to testing, 32 mg/kg) is on record as −68%; the “Duration of Immobility % change from control” value (STUDY A, 32 mg/kg i.p. 30 min prior to testing, listed as imipramine hydrochloride, 32 mg/kg) is −68%; the “Duration of Immobility % change from control” value (STUDY B, 32 mg/kg i.p. 30 min prior to testing, 32 mg/kg) is −88%; the “Duration of Immobility % change from control” value (STUDY B, 32 mg/kg i.p. 30 min prior to testing, listed as imipramine hydrochloride, 32 mg/kg) is listed as −88%.

The values are drawn from patent publication US8198268B2, “Tianeptine sulfate salt forms and methods of making and using the same” (Janssen Biotech, Inc., priority 2008, dated 2012).
